Laboratory results: ChEMBL document CHEMBL4665820, “Discovery of VU6027459: A First-in-Class Selective and CNS Penetrant mGlu Positive Allosteric Modulator Tool Compound” (ACS Med Chem Lett, 2020)

How the values were obtained:
[1] = biological target: Platelet-activating factor receptor (Homo sapiens) (UniProt P25105); assay: Displacement of [3H]-C18-PAF from human PAF receptor at 10 uM incubated for 180 mins by scintillation counting analysis relative to control
[2] = biological target: Metabotropic glutamate receptor 7 (Rattus norvegicus) (UniProt P35400); assay: Positive allosteric modulation of rat mGlu7 receptor expressed in HEK293 cells co-expressing Gai5 assessed as potentiation of L-AP4-induced calcium mobilization preincubated for 140 secs and treated with EC20 L-AP4 for 125 secs and followed by subsequent addition of EC80 L-AP4 by Fluo-4-AM dye based fluorescence assay relative to maximal induction of L-AP4; format: functional, cell-based; conditions: filed as positive allosteric modulator, time 140.0 sec
[3] = species: Rattus norvegicus; assay: Displacement of [3H]-Nitrendipine from L-type calcium channel dihydropyridine binding site in rat brain at 10 uM incubated for 90 mins by scintillation counting analysis relative to control; format: tissue-based
[4] = biological target: Sigma non-opioid intracellular receptor 1 (Homo sapiens, UniProt Q99720); assay: Displacement of [3H]-Pentazocine from human recombinant sigma 1 receptor at 10 uM incubated for 120 mins by scintillation counting analysis relative to control
[5] = biological target: Sodium-dependent serotonin transporter (Homo sapiens) (UniProt P31645); assay: Displacement of [3H]-imipramine from recombinant human 5-HT transporter at 10 uM after 60 mins by scintillation counting relative to control
[6] = biological target: Alpha-1D adrenergic receptor (Homo sapiens) (UniProt P25100); assay: Displacement of [3H]-Prazosin from human recombinant adrenergic alpha 1D receptor at 10 uM incubated for 60 mins by scintillation counting analysis relative to control
[7] = biological target: Adenosine receptor A1 (Homo sapiens) (UniProt P30542); assay: Displacement of [3H]-DPCPX from human recombinant adenosine A1 receptor at 10 uM after 60 mins by scintillation counting analysis relative to control
[8] = biological target: D(2) dopamine receptor (Homo sapiens) (UniProt P14416); assay: Displacement of [3H]7-OH-DPAT from human recombinant dopamine D2S receptor at 10 uM after 60 mins by scintillation counting analysis relative to control
[9] = biological target: Muscarinic acetylcholine receptor M2 (Homo sapiens) (UniProt P08172); assay: Displacement of [3H]AF-DX 384 from human recombinant M2 receptor at 10 uM after 60 mins by scintillation counting analysis relative to control
[10] = species: Rattus norvegicus; assay: Displacement of [125I]-Omega -conotoxin GIVA from N-type calcium channel in rat brain membrane at 10 uM incubated for 30 mins by scintillation counting analysis relative to control; format: cell membranes
[11] = biological target: Alpha-1B adrenergic receptor (Homo sapiens) (UniProt P35368); assay: Displacement of [3H]-Prazosin from human recombinant adrenergic alpha 1B receptor at 10 uM incubated for 60 mins by scintillation counting analysis relative to control
[12] = biological target: Sodium-dependent noradrenaline transporter (Homo sapiens) (UniProt P23975); assay: Displacement of […] from recombinant human norepinephrine transporter at 10 uM after 120 mins by scintillation counting analysis relative to control
[13] = biological target: Adenosine receptor A3 (Homo sapiens) (UniProt P0DMS8); assay: Displacement of [125I]AB-MECA from human recombinant adenosine A3 receptor at 10 uM after 120 mins by scintillation counting analysis relative to control
[14] = biological target: 5-hydroxytryptamine receptor 3A (Homo sapiens) (UniProt P46098); assay: Displacement of [3H]BRL 43694 from human recombinant 5-HT3 receptor at 10 uM after 120 mins by scintillation counting analysis relative to control
[15] = biological target: Muscarinic acetylcholine receptor M1 (Homo sapiens) (UniProt P11229); assay: Displacement of [125I]pirenzepine from human recombinant M1 receptor at 10 uM after 60 mins by scintillation counting analysis relative to control
[16] = biological target: B2 bradykinin receptor (Homo sapiens) (UniProt P30411); assay: Displacement of [3H]bradykinin from human recombinant B2 receptor at 10 uM after 60 mins by scintillation counting analysis relative to control
[17] = biological target: Alpha-2A adrenergic receptor (Homo sapiens) (UniProt P08913); assay: Displacement of [3H]-RX821002 from human recombinant adrenergic alpha 2A receptor at 10 uM incubated for 60 mins by scintillation counting analysis relative to control
[18] = biological target: Alpha-1A adrenergic receptor (Homo sapiens) (UniProt P35348); assay: Displacement of [3H]-Prazosin from human recombinant adrenergic alpha 1A receptor at 10 uM incubated for 60 mins by scintillation counting analysis relative to control
[19] = biological target: Neuropeptide Y receptor type 1 (Homo sapiens) (UniProt P25929); assay: Displacement of [125I]peptide YY from human Y1 receptor at 10 uM after 120 mins by scintillation counting analysis relative to control
[20] = test system: CHO-K1; assay: Inhibition of human recombinant full length Dopamine D4.2 receptor expressed in CHOK1 cells at 10 uM incubated for 30 mins by GTPgammaS assay relative to control; format: cell-based
[21] = biological target: B1 bradykinin receptor (Homo sapiens) (UniProt P46663); assay: Displacement of [3H]desArg10-KD from human recombinant Bradykinin B1 receptor at 10 uM incubated for 120 mins by scintillation counting analysis relative to control
[22] = biological target: Histamine H3 receptor (Homo sapiens) (UniProt Q9Y5N1); assay: Displacement of [3H]-N-alpha-Methylhistamine from human recombinant Histamine H3 receptor at 10 uM incubated for 60 mins by scintillation counting analysis relative to control
[23] = biological target: Melatonin receptor type 1A (Homo sapiens) (UniProt P48039); assay: Displacement of [125I][…] from human recombinant MT1 receptor at 10 uM after 240 mins by scintillation counting analysis relative to control
[24] = species: Rattus norvegicus; assay: Displacement of [3H]-Flunitrazepam from GABAA channel flunitrazepam binding site in rat brain at 10 uM incubated for 60 mins by scintillation counting analysis relative to control; format: tissue-based
[25] = biological target: Prostaglandin E2 receptor EP4 subtype (Homo sapiens) (UniProt P35408); assay: Displacement of [3H]-Prostaglandin E2 from human recombinant prostanoid receptor EP4 at 10 uM incubated for 120 mins by scintillation counting analysis relative to control
[26] = biological target: Endothelin receptor type B (Homo sapiens) (UniProt P24530); assay: Displacement of [125I]-endothelin1 from human recombinant Endothelin ETB receptor cells at 10 uM incubated for 120 mins by scintillation counting analysis relative to control; format: cell-based
[27] = biological target: 5-hydroxytryptamine receptor 2B (Homo sapiens) (UniProt P41595); assay: Displacement of [125I]+/-DOI from human recombinant 5-HT2B receptor at 10 uM after 60 mins by scintillation counting analysis relative to control
[28] = biological target: Endothelin-1 receptor (Homo sapiens) (UniProt P25101); assay: Displacement of [125I]-endothelin-1 from human recombinant ETA receptor at 10 uM after 120 mins by scintillation counting analysis relative to control
[29] = biological target: D(1A) dopamine receptor (Homo sapiens) (UniProt P21728); assay: Displacement of [3H]-SCH 23390 from human recombinant dopamine D1 receptor at 10 uM by scintillation counting 60 mins analysis relative to control
[30] = species: Rattus norvegicus; assay: Displacement of [3H]-Muscimol from GABAA channel muscimol binding site in rat brain at 10 uM incubated for 10 mins by scintillation counting analysis relative to control; format: tissue-based

Chain of Metabotropic glutamate receptor 7 (Rattus norvegicus) (P35400 whole entry): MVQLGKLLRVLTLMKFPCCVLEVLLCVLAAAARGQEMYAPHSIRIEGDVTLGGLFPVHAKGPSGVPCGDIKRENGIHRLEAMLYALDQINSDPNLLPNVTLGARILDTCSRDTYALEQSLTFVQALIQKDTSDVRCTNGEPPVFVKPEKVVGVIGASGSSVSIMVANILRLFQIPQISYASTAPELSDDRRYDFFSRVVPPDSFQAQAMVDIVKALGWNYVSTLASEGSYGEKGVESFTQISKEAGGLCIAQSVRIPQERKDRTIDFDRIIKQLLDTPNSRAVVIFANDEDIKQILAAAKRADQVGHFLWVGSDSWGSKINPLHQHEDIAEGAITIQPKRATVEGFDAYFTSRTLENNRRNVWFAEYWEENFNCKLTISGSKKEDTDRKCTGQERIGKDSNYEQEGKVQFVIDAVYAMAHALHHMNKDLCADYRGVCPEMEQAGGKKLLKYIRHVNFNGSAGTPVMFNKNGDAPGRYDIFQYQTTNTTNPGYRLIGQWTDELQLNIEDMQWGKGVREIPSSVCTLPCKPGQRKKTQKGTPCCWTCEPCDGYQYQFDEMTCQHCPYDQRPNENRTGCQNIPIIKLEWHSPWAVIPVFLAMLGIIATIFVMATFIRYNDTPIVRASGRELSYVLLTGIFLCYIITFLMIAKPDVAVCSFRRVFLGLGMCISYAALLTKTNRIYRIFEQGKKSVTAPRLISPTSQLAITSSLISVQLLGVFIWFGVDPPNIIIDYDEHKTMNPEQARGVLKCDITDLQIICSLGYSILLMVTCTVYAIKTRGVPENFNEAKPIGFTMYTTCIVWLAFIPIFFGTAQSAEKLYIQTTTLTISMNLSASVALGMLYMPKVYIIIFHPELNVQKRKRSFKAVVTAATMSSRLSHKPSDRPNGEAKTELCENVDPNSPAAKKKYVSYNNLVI
Chain of D(2) dopamine receptor (Homo sapiens) (P14416 whole entry): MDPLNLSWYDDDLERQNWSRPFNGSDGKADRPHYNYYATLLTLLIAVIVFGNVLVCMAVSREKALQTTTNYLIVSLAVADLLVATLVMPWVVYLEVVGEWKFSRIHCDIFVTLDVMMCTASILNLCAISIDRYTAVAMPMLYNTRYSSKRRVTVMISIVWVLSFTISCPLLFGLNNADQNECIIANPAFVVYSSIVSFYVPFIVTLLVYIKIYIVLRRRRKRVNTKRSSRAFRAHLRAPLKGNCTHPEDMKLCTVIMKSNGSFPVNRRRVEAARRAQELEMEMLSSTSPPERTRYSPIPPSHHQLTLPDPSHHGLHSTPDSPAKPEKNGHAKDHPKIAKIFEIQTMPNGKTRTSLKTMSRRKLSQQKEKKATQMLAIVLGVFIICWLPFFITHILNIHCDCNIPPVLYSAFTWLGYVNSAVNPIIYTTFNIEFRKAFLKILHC
Chain of Muscarinic acetylcholine receptor M1 (Homo sapiens) (P11229 whole entry): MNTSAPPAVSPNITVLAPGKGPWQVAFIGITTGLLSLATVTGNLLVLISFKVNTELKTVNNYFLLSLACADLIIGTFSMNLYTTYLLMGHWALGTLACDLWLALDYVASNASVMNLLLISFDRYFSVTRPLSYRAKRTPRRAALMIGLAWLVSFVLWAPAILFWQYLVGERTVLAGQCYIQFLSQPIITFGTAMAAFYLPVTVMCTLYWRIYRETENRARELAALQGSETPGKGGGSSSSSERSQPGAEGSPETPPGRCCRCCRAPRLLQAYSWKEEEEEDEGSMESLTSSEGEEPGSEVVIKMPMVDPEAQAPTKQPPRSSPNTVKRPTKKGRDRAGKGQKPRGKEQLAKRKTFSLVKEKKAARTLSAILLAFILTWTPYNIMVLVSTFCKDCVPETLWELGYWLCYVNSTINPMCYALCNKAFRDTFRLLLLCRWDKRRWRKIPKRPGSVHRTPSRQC
Chain of Muscarinic acetylcholine receptor M2 (Homo sapiens) (P08172 whole entry): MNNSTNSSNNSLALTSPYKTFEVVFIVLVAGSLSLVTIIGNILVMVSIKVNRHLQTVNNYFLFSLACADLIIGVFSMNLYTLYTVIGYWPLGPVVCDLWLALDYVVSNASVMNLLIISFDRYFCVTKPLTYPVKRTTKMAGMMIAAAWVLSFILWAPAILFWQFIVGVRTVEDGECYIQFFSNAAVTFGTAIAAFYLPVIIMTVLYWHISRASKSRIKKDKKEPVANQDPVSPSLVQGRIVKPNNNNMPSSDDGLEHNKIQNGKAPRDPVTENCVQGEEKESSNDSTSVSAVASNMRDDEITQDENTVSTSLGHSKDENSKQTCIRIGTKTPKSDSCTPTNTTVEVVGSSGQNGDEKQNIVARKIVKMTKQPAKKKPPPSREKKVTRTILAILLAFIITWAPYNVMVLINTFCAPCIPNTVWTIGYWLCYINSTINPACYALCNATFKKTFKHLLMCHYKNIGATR
Chain of B1 bradykinin receptor (Homo sapiens) (P46663 whole entry): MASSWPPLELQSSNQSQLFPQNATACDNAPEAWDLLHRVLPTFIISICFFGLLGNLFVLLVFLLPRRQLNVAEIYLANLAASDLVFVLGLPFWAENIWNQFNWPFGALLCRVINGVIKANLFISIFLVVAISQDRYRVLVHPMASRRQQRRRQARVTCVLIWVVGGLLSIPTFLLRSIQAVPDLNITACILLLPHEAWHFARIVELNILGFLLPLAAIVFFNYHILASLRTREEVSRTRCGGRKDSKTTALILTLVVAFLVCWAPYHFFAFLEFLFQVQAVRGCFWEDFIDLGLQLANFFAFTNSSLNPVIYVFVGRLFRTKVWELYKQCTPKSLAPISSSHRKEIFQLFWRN
Chain of Neuropeptide Y receptor type 1 (Homo sapiens) (P25929 whole entry): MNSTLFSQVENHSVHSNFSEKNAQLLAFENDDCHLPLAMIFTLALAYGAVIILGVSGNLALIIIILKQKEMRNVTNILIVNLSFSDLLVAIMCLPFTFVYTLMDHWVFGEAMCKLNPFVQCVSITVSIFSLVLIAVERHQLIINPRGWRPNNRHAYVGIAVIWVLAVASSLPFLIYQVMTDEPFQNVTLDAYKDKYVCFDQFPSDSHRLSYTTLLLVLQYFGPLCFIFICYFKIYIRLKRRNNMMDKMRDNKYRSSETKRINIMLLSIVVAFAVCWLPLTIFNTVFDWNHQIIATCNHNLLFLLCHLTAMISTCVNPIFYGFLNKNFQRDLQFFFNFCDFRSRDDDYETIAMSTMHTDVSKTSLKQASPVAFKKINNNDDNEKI
Chain of Sodium-dependent noradrenaline transporter (Homo sapiens) (P23975 whole entry): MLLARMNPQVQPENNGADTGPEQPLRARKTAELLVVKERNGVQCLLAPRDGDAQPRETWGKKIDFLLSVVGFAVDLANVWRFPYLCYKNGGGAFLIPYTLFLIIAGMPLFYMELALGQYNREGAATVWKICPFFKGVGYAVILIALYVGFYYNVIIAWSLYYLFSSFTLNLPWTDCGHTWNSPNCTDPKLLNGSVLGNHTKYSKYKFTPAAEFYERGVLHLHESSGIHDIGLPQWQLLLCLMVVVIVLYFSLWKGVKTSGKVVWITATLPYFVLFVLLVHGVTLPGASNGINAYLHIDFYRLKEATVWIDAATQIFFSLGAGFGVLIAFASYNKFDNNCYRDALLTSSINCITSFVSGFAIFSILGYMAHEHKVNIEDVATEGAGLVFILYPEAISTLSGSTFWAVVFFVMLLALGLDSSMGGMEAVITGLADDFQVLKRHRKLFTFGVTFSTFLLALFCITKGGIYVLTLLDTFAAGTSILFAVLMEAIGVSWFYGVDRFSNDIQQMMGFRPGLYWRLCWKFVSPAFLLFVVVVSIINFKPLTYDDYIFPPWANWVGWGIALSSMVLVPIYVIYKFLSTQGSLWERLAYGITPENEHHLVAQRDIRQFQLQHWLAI
Chain of Sodium-dependent serotonin transporter (Homo sapiens) (P31645 whole entry, looked up): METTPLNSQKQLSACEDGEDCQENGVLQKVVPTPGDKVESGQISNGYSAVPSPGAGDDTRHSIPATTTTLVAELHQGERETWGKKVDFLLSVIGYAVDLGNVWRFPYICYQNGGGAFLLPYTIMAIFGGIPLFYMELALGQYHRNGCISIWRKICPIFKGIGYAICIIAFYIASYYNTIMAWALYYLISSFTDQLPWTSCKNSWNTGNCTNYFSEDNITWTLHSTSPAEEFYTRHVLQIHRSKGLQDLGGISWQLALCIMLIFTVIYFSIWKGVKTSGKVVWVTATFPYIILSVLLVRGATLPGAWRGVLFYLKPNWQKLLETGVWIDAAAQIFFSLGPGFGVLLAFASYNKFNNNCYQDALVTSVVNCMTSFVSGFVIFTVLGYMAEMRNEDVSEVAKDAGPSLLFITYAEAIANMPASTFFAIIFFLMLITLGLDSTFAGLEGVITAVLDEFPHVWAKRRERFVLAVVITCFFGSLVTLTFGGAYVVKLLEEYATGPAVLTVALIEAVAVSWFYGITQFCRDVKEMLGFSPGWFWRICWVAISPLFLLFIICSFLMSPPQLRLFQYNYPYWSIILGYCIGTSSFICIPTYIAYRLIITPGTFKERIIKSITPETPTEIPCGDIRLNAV
Chain of Platelet-activating factor receptor (Homo sapiens) (P25105 whole entry): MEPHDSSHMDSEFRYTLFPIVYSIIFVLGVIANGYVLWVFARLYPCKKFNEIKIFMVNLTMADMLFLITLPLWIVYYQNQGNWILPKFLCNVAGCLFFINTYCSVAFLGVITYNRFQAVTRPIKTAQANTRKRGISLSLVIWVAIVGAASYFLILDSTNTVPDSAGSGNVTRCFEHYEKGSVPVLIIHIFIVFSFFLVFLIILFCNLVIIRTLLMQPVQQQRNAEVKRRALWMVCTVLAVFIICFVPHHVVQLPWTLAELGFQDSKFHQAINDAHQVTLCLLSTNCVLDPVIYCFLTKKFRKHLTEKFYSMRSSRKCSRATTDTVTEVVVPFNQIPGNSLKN
Chain of Adenosine receptor A3 (Homo sapiens) (P0DMS8 whole entry): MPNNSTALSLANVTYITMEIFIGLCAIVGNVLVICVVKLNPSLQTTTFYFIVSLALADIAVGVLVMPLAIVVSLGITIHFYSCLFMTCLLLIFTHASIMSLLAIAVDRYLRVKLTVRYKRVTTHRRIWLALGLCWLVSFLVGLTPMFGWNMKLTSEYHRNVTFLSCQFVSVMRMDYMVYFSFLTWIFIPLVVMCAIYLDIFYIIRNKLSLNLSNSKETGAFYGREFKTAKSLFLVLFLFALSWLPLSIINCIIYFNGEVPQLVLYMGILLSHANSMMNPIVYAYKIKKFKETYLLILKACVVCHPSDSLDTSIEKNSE

COc1cccc2c(N3CCN(c4ccccc4F)CC3)c(C#N)cnc12
inhibition [1]: < 50%
Activity [2]: 85.1%
Activity ([2]; tested as the 2H-labelled form): 73%
inhibition [3]: < 50%
inhibition [4]: < 50%
inhibition [5]: < 50%
inhibition [6]: < 50%
inhibition [7]: < 50%
inhibition [8]: < 50%
inhibition [9]: < 50%
inhibition [10]: < 50%
inhibition [11]: < 50%
inhibition [12]: < 50%
inhibition [13]: < 50%
inhibition [14]: < 50%
inhibition [15]: < 50%
inhibition [16]: < 50%
inhibition [17]: < 50%
inhibition [18]: < 50%
inhibition [19]: < 50%
inhibition [20]: < 50%
inhibition [21]: < 50%
inhibition [22]: < 50%
inhibition [23]: < 50%
inhibition [24]: < 50%
inhibition [25]: < 50%
inhibition [26]: < 50%
inhibition [27]: < 50%
inhibition [28]: < 50%
inhibition [29]: < 50%
inhibition [30]: < 50%

COc1cc(F)cc2c(N3CCN(c4ccccc4F)CC3)c(C#N)cnc12
inhibition ([1]; tested as the 2H-labelled form): < 50%
Activity [2]: 98%
Activity ([2]; tested as the 2H-labelled form): 98%
inhibition ([3]; tested as the 2H-labelled form): < 50%
inhibition ([4]; tested as the 2H-labelled form): 77%
inhibition ([5]; tested as the 2H-labelled form): < 50%
inhibition ([6]; tested as the 2H-labelled form): < 50%
inhibition ([7]; tested as the 2H-labelled form): < 50%
inhibition ([8]; tested as the 2H-labelled form): < 50%
inhibition ([9]; tested as the 2H-labelled form): < 50%
inhibition ([10]; tested as the 2H-labelled form): < 50%
inhibition ([11]; tested as the 2H-labelled form): < 50%
inhibition ([12]; tested as the 2H-labelled form): < 50%
inhibition ([13]; tested as the 2H-labelled form): < 50%
inhibition ([14]; tested as the 2H-labelled form): < 50%
inhibition ([15]; tested as the 2H-labelled form): < 50%
inhibition ([16]; tested as the 2H-labelled form): < 50%
inhibition ([17]; tested as the 2H-labelled form): < 50%
inhibition ([18]; tested as the 2H-labelled form): < 50%
inhibition ([19]; tested as the 2H-labelled form): < 50%
inhibition ([20]; tested as the 2H-labelled form): < 50%
inhibition ([21]; tested as the 2H-labelled form): < 50%
inhibition ([22]; tested as the 2H-labelled form): < 50%
inhibition ([23]; tested as the 2H-labelled form): < 50%
inhibition ([24]; tested as the 2H-labelled form): < 50%
inhibition ([25]; tested as the 2H-labelled form): < 50%
inhibition ([26]; tested as the 2H-labelled form): < 50%
inhibition ([27]; tested as the 2H-labelled form): < 50%
inhibition ([28]; tested as the 2H-labelled form): < 50%
inhibition ([29]; tested as the 2H-labelled form): < 50%
inhibition ([30]; tested as the 2H-labelled form): < 50%
